According to patent US20240199546A1, “INHIBITORS OF SOLUTE CARRIER FAMILY 6A MEMBER 19 (SLC6A19) AND METHODS OF USE THEREOF” (Maze Therapeutics, Inc., priority 2022, published 2024):

What was measured:
human SLC6A19 and TMEM27 [1] = biological target: T1, human SLC6A19 and TMEM27 (Homo sapiens, UniProt Q695T7); experiment: Radiolabelled (3H) leucine uptake in CHO cells with doxycycline-inducible expression of human SLC6A19 and TMEM27 (Example B-1); assay type: cell-based; conditions: CHO cells with doxycycline-inducible expression of human SLC6A19 and TMEM27, read-out: SLC6A19_Radioligand Uptake Assay IC50
T1 construct: expressed in transfected cells
T1 sequence (Q695T7 1-634): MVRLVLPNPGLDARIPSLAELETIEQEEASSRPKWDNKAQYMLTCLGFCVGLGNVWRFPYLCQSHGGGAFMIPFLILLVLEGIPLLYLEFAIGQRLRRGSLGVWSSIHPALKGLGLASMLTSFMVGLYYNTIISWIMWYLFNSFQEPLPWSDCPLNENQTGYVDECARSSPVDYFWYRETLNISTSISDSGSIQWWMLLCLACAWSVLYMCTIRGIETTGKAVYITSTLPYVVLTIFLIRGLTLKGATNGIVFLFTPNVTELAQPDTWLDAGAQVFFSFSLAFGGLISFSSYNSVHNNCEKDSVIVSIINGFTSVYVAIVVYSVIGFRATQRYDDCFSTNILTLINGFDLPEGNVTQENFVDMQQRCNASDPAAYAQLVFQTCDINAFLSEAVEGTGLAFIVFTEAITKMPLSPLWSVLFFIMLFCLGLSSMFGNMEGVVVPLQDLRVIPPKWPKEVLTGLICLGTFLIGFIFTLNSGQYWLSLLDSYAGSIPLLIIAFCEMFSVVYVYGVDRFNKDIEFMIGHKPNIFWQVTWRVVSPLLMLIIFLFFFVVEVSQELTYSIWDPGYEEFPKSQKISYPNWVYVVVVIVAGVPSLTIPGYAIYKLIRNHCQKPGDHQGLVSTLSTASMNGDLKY
T1 sequence (Q9HBJ8 15-222 partner): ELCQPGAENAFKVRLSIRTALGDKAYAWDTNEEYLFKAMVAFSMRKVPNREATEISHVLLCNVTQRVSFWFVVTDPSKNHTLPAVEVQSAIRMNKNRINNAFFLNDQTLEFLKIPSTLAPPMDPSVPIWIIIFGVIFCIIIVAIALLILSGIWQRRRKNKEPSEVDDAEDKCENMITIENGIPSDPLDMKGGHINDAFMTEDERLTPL
Outline: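 CHO cells were induced with doxycycline for 18 h at 37 °C, washed in HBSS, then exposed to compounds for 1 h: 8-point, 3-fold dilutions in duplicate, 0.5% DMSO final. Uptake measured by scintillation counting after 2 h shaking. Activity normalized with positive control as 0% and DMSO as 100%.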

human SLC6A19 and TMEM27 [2] = biological target: T1, human SLC6A19 and TMEM27; experiment: 13C6,15N-isoleucine uptake in CHO cells with doxycycline-inducible expression of human SLC6A19 and TMEM27, RapidFire mass spectrometry (Example B-2); assay type: cell-based; conditions: read-out: SLC6A19_RapidFire Uptake Assay IC50
Outline: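 Read-out is RapidFire mass-spec peak area of 13C6,15N-isoleucine taken up over 20 min at 37 °C, after 20 min compound pre-exposure in pH 7.2 HEPES-buffered saline. Cells: doxycycline-induced CHO co-expressing human SLC6A19 and TMEM27; compounds as duplicate 10-point 2-fold dilutions, positive control setting 0% activity.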

| SMILES | IC50 (human SLC6A19 and TMEM27 [1]) [nM] | IC50 (human SLC6A19 and TMEM27 [2]) [nM] |
| --- | --- | --- |
| Cn1ncc(COc2cc3[nH]c(CNC(=O)C4(C)CC4)cc3cc2F)n1 [Compound 496, N-((5-fluoro-6-((2-methyl-2H-1,2,3-triazol-4-yl)methoxy)-1H-indol-2-yl)methyl)-1-methylcyclopropane-1-carboxamide] | 430 | 424 |
| O=C(NCc1cc2cc(F)c(OCc3cccc(F)n3)cc2[nH]1)C1CC1 [Compound 497, N-((5-fluoro-6-((6-fluoropyridin-2-yl)methoxy)-1H-indol-2-yl)methyl)cyclopropanecarboxamide] | 197 | 184 |
| Cn1ncc(COc2cc3[nH]c(CNC(=O)C4CC4)cc3cc2Cl)n1 [Compound 498, N-((5-chloro-6-((2-methyl-2H-1,2,3-triazol-4-yl)methoxy)-1H-indol-2-yl)methyl)cyclopropanecarboxamide] | 159 | 90.2 |
| O=C(NCc1cc2cc(Cl)c(OCc3cccc(F)n3)cc2[nH]1)C1CC1 [Compound 499, N-((5-chloro-6-((6-fluoropyridin-2-yl)methoxy)-1H-indol-2-yl)methyl)cyclopropanecarboxamide] | 213 | 55.4 |
| CC1(C(=O)NCc2cc3cc(F)c(OCc4ccon4)cc3[nH]2)CCC1 [Compound 502, N-((5-fluoro-6-(isoxazol-3-ylmethoxy)-1H-indol-2-yl)methyl)-1-methylcyclobutane-1-carboxamide] | 2130 | 1780 |
| O=C(NCc1cc2cc(Cl)c(OCc3ccccn3)cc2[nH]1)C1CC1 [Compound 503, N-((5-chloro-6-(pyridin-2-ylmethoxy)-1H-indol-2-yl)methyl)cyclopropanecarboxamide] | 317 | 66.7 |
| CC1(C(=O)NCc2cc3cc(Cl)c(OCc4ccon4)cc3[nH]2)CCC1 [Compound 504, N-((5-chloro-6-(isoxazol-3-ylmethoxy)-1H-indol-2-yl)methyl)-1-methylcyclobutane-1-carboxamide] | 391 | 406 |
| CC1(C(=O)NCc2cc3cc(F)c(NCc4ccon4)cc3[nH]2)CC1 [Compound 524, N-((5-fluoro-6-((isoxazol-3-ylmethyl)amino)-1H-indol-2-yl)methyl)-1-methylcyclopropane-1-carboxamide] | 400 | 570 |
| Cc1nc(COc2cc3[nH]c(CNC(=O)C4(C)CC4)cc3cc2F)co1 [Compound 547, N-((5-fluoro-6-((2-methyloxazol-4-yl)methoxy)-1H-indol-2-yl)methyl)-1-methylcyclopropane-1-carboxamide] | 363 | 314 |
| Cc1nc(COc2cc3[nH]c(CNC(=O)C4CC4)cc3cc2F)co1 [Compound 549, N-((5-fluoro-6-((2-methyloxazol-4-yl)methoxy)-1H-indol-2-yl)methyl)cyclopropanecarboxamide] | 426 | 833 |
| CC1(C(=O)NCc2cc3cc(Cl)c(CCn4cccn4)cc3[nH]2)CC1 [Compound 590, N-((6-(2-(1H-pyrazol-1-yl)ethyl)-5-chloro-1H-indol-2-yl)methyl)-1-methylcyclopropane-1-carboxamide] | 145 | 51.8 |
| CC1(C(=O)NCc2cc3cc(F)c(CCc4ccon4)cc3[nH]2)CC1 [Compound 592, N-((5-fluoro-6-(2-(isoxazol-3-yl)ethyl)-1H-indol-2-yl)methyl)-1-methylcyclopropane-1-carboxamide] | 163 | 93.1 |
| O=C(NCc1cc2cc(F)c(CCc3ccon3)cc2[nH]1)N1CCC1 [Compound 602, N-((5-fluoro-6-(2-(isoxazol-3-yl)ethyl)-1H-indol-2-yl)methyl)azetidine-1-carboxamide] | 820 | 609 |
| O=C(NCc1cc2cc(F)c(CCc3ccon3)cc2[nH]1)N1CCCC1 [Compound 603, N-((5-fluoro-6-(2-(isoxazol-3-yl)ethyl)-1H-indol-2-yl)methyl)pyrrolidine-1-carboxamide] | 345 | 263 |
| CC1(C(=O)NCc2cc3cc(Cl)c(CNc4ccon4)cc3[nH]2)CC1 [Compound 608, N-((5-chloro-6-((isoxazol-3-ylamino)methyl)-1H-indol-2-yl)methyl)-1-methylcyclopropane-1-carboxamide] | 304 | 457 |

Other lines, results leading:

| IC50 (human SLC6A19 and TMEM27 [1]) [nM] | IC50 (human SLC6A19 and TMEM27 [2]) [nM] | SMILES |
| --- | --- | --- |
| 1440 | 1140 | CC(C)(C)C(=O)NCc1cc2cc(Cl)c(OCc3ccon3)cc2[nH]1 [Compound 493, N-((5-chloro-6-(isoxazol-3-ylmethoxy)-1H-indol-2-yl)methyl)pivalamide] |
| 148 | 35.7 | CCC(=O)NCc1cc2cc(Cl)c(OCc3cccc(F)n3)cc2[nH]1 [Compound 494, N-((5-chloro-6-((6-fluoropyridin-2-yl)methoxy)-1H-indol-2-yl)methyl)propionamide] |
| 397 | 240 | O=C(NCc1cc2cc(Cl)c(OCc3cscn3)cc2[nH]1)C1CC(F)(F)C1 [Compound 495, N-((5-chloro-6-(thiazol-4-ylmethoxy)-1H-indol-2-yl)methyl)-3,3-difluorocyclobutane-1-carboxamide] |
| 195 | 257 | CC(C)C(=O)NCc1cc2cc(Cl)c(OCc3cocn3)cc2[nH]1 [Compound 500, N-((5-chloro-6-(oxazol-4-ylmethoxy)-1H-indol-2-yl)methyl)isobutyramide] |
| 312 | 1300 | CC(C)C(=O)NCc1cc2cc(F)c(OCc3cocn3)cc2[nH]1 [Compound 501, N-((5-fluoro-6-(oxazol-4-ylmethoxy)-1H-indol-2-yl)methyl)isobutyramide] |
| 208 | 239 | CC1(C(=O)NCc2cc3cc(F)c(NCc4cscn4)cc3[nH]2)CC1 [Compound 523, N-((5-fluoro-6-((thiazol-4-ylmethyl)amino)-1H-indol-2-yl)methyl)-1-methylcyclopropane-1-carboxamide] |
| 278 | 292 | Cc1cc2cc(CNC(=O)N3CCC3)[nH]c2cc1OCc1cscn1 [Compound 528, N-((5-methyl-6-(thiazol-4-ylmethoxy)-1H-indol-2-yl)methyl)azetidine-1-carboxamide] |
| 192 | 154 | CCC(=O)NCc1cc2cc(C)c(OCc3cscn3)cc2[nH]1 [Compound 529, N-((5-methyl-6-(thiazol-4-ylmethoxy)-1H-indol-2-yl)methyl)propionamide] |
| 171 | 208 | CCC(=O)NCc1cc2cc(C)c(OCc3ccon3)cc2[nH]1 [Compound 530, N-((6-(isoxazol-3-ylmethoxy)-5-methyl-1H-indol-2-yl)methyl)propionamide] |
| 295 | 164 | Cc1cc2cc(CNC(=O)N3CCCC3)[nH]c2cc1OCc1cscn1 [Compound 531, N-((5-methyl-6-(thiazol-4-ylmethoxy)-1H-indol-2-yl)methyl)pyrrolidine-1-carboxamide] |
| 509 | 632 | Cc1cc2cc(CNC(=O)N3CCC3)[nH]c2cc1OCc1ccon1 [Compound 532, N-((6-(isoxazol-3-ylmethoxy)-5-methyl-1H-indol-2-yl)methyl)azetidine-1-carboxamide] |
| 332 | 330 | Cc1cc2cc(CNC(=O)N3CCCC3)[nH]c2cc1OCc1ccon1 [Compound 533, N-((6-(isoxazol-3-ylmethoxy)-5-methyl-1H-indol-2-yl)methyl)pyrrolidine-1-carboxamide] |
| 100 | 54.5 | CCC(=O)NCc1cc2cc(F)c(OCc3cc(C)no3)cc2[nH]1 [Compound 548, N-((5-fluoro-6-((3-methylisoxazol-5-yl)methoxy)-1H-indol-2-yl)methyl)propionamide] |
| 552 | 1040 | CCC(=O)NCc1cc2cc(F)c(OCc3coc(C)n3)cc2[nH]1 [Compound 550, N-((5-fluoro-6-((2-methyloxazol-4-yl)methoxy)-1H-indol-2-yl)methyl)propionamide] |
| 954 | 1760 | Cc1nc(COc2cc3[nH]c(CNC(=O)C(C)C)cc3cc2F)co1 [Compound 551, N-((5-fluoro-6-((2-methyloxazol-4-yl)methoxy)-1H-indol-2-yl)methyl)isobutyramide] |
